Assay results: ChEMBL document CHEMBL3046501, “Synthesis, characterization & anticonvulsant activity of amide derivatives of 4-amino-1,2-naphthoquinone” (Med Chem Res, 2013)
Active and inactive are the calls of the source. No cut-off for these calls is given here.

Legend:
Mus musculus [1] = assay: Anticonvulsant activity in Swiss albino Mus musculus (mouse) assessed as protection against subcutaneous pentylenetetrazol-induced seizures at 40 mg/kg, ip after 0.5 hr; type: functional, organism-based; design: dose 40 mg/kg
Mus musculus [2] = assay: Anticonvulsant activity in Swiss albino Mus musculus (mouse) assessed as protection against maximal electroshock-induced seizures at 40 mg/kg, ip after 1 hr; type: functional, organism-based; design: dose 40 mg/kg
Mus musculus [3] = assay: Anticonvulsant activity in Swiss albino Mus musculus (mouse) assessed as protection against maximal electroshock-induced seizures at 20 mg/kg, ip after 1 hr; type: functional, organism-based; design: dose 20 mg/kg
Mus musculus [4] = assay: Anticonvulsant activity in Swiss albino Mus musculus (mouse) assessed as protection against maximal electroshock-induced seizures at 20 mg/kg, ip after 2 hr; type: functional, organism-based; design: dose 20 mg/kg
Mus musculus [5] = assay: Anticonvulsant activity in Swiss albino Mus musculus (mouse) assessed as protection against maximal electroshock-induced seizures at 10 mg/kg, ip after 2 hr; type: functional, organism-based; design: dose 10 mg/kg
Mus musculus [6] = assay: Anticonvulsant activity in Swiss albino Mus musculus (mouse) assessed as protection against maximal electroshock-induced seizures at 10 mg/kg, ip after 1 hr; type: functional, organism-based; design: dose 10 mg/kg
Mus musculus [7] = assay: Anticonvulsant activity in Swiss albino Mus musculus (mouse) assessed as protection against subcutaneous pentylenetetrazol-induced seizures at 20 mg/kg, ip after 0.5 hr; type: functional, organism-based; design: dose 20 mg/kg
Mus musculus [8] = assay: Anticonvulsant activity in Swiss albino Mus musculus (mouse) assessed as protection against maximal electroshock-induced seizures at 40 mg/kg, ip after 4 hr; type: functional, organism-based; design: dose 40 mg/kg
Mus musculus [9] = assay: Anticonvulsant activity in Swiss albino Mus musculus (mouse) assessed as protection against subcutaneous pentylenetetrazol-induced seizures at 40 mg/kg, ip after 4 hr; type: functional, organism-based; design: dose 40 mg/kg
Mus musculus [10] = assay: Anticonvulsant activity in Swiss albino Mus musculus (mouse) assessed as protection against maximal electroshock-induced seizures at 20 mg/kg, ip after 4 hr; type: functional, organism-based; design: dose 20 mg/kg
Mus musculus [11] = assay: Anticonvulsant activity in Swiss albino Mus musculus (mouse) assessed as protection against maximal electroshock-induced seizures at 10 mg/kg, ip after 4 hr; type: functional, organism-based; design: dose 10 mg/kg
Mus musculus [12] = assay: Anticonvulsant activity in Swiss albino Mus musculus (mouse) assessed as protection against subcutaneous pentylenetetrazol-induced seizures at 10 mg/kg, ip after 4 hr; type: functional, organism-based; design: dose 10 mg/kg
Mus musculus [13] = assay: Anticonvulsant activity in Swiss albino Mus musculus (mouse) assessed as protection against subcutaneous pentylenetetrazol-induced seizures at 10 mg/kg, ip after 0.5 hr; type: functional, organism-based; design: dose 10 mg/kg
Mus musculus [14] = assay: Anticonvulsant activity in Swiss albino Mus musculus (mouse) assessed as protection against maximal electroshock-induced seizures at 40 mg/kg, ip after 3 hr; type: functional, organism-based; design: dose 40 mg/kg
Mus musculus [15] = assay: Anticonvulsant activity in Swiss albino Mus musculus (mouse) assessed as protection against maximal electroshock-induced seizures at 20 mg/kg, ip after 3 hr; type: functional, organism-based; design: dose 20 mg/kg
Mus musculus [16] = assay: Anticonvulsant activity in Swiss albino Mus musculus (mouse) assessed as protection against maximal electroshock-induced seizures at 5 mg/kg, ip after 1 hr; type: functional, organism-based; design: dose 5 mg/kg
Mus musculus [17] = assay: Anticonvulsant activity in Swiss albino Mus musculus (mouse) assessed as protection against subcutaneous pentylenetetrazol-induced seizures at 5 mg/kg, ip after 0.5 hr; type: functional, organism-based; design: dose 5 mg/kg
Mus musculus [18] = assay: Anticonvulsant activity in Swiss albino Mus musculus (mouse) assessed as protection against maximal electroshock-induced seizures at 5 mg/kg, ip after 3 hr; type: functional, organism-based; design: dose 5 mg/kg
Mus musculus [19] = assay: Anticonvulsant activity in Swiss albino Mus musculus (mouse) assessed as protection against subcutaneous pentylenetetrazol-induced seizures at 20 mg/kg, ip after 4 hr; type: functional, organism-based; design: dose 20 mg/kg
Mus musculus [20] = assay: Anticonvulsant activity in Swiss albino Mus musculus (mouse) assessed as protection against maximal electroshock-induced seizures at 40 mg/kg, ip after 2 hr; type: functional, organism-based; design: dose 40 mg/kg
Mus musculus [21] = assay: Neurotoxicity in Swiss albino Mus musculus (mouse) assessed as minimal motor impairment at 30 mg/kg, ip after 4 hr; type: toxicity, organism-based; design: dose 30 mg/kg, route intraperitoneal; details: in vivo
Mus musculus [22] = assay: Anticonvulsant activity in Swiss albino Mus musculus (mouse) assessed as protection against maximal electroshock-induced seizures at 10 mg/kg, ip after 3 hr; type: functional, organism-based; design: dose 10 mg/kg

Compound	Activity (Mus musculus [1])	Activity (Mus musculus [2])	Activity (Mus musculus [3])	Activity (Mus musculus [5])	Activity (Mus musculus [7])	Activity (Mus musculus [8])	Activity (Mus musculus [10])	Activity (Mus musculus [11])	Activity (Mus musculus [12])	other results
CC(C)C(=O)NC1=CC(=O)C(=O)c2ccccc21	Active	Active	Active	–	–	–	–	–	–	–
CCCCCC(=O)NC1=CC(=O)C(=O)c2ccccc21	Active	–	Active	Active	Active	Active	–	–	–	Activity (Mus musculus [4]): Active; Activity (Mus musculus [6]): Active; Activity (Mus musculus [9]): Active
O=C1C=C(NC(=O)c2cccnc2)c2ccccc2C1=O	–	–	–	inactive	–	–	inactive	inactive	–	–
O=C1C=C(NC(=O)c2ccccc2)c2ccccc2C1=O	–	–	–	inactive	–	–	inactive	inactive	inactive	Activity (Mus musculus [13]): inactive
CC(=O)NCC(=O)NC1=CC(=O)C(=O)c2ccccc21	–	–	–	–	–	inactive	–	–	inactive	Activity (Mus musculus [14]): inactive; Activity (Mus musculus [6]): Active; Activity (Mus musculus [15]): Active
O=C1NC(=O)C(c2ccccc2)(c2ccccc2)N1	–	–	–	–	–	–	–	–	–	Activity (Mus musculus [16]): Active; Activity (Mus musculus [17]): Active; Activity (Mus musculus [18]): Active
CC(=O)Nc1ccc(C(=O)NC2=CC(=O)C(=O)c3ccccc32)cc1	Active	Active	Active	Active	Active	Active	Active	–	–	Activity (Mus musculus [4]): Active; Activity (Mus musculus [19]): inactive; Activity (Mus musculus [6]): Active; Activity (Mus musculus [9]): Active; Activity (Mus musculus [20]): Active
CCC(=O)NC1=CC(=O)C(=O)c2ccccc21	–	–	Active	–	–	–	inactive	inactive	inactive	Activity (Mus musculus [19]): inactive; Activity (Mus musculus [21]): Non-toxic
CCCC(=O)NC1=CC(=O)C(=O)c2ccccc21	Active	Active	Active	–	Active	–	–	inactive	–	Activity (Mus musculus [14]): Active; Activity (Mus musculus [9]): Active; Activity (Mus musculus [15]): Active
CC(C)CC(=O)NC1=CC(=O)C(=O)c2ccccc21	Active	Active	Active	–	Active	–	–	–	–	Activity (Mus musculus [14]): Active; Activity (Mus musculus [22]): Active; Activity (Mus musculus [15]): Active
CC(=O)NC1=CC(=O)C(=O)c2ccccc21	–	Active	Active	–	–	inactive	inactive	inactive	inactive	Activity (Mus musculus [19]): inactive; Activity (Mus musculus [22]): inactive
